Data on 4 compounds can be found in publication PMC10092844, “Inhibition profile of trifludimoxazin towards PPO2 target site mutations” (Pest Management Science, 2022).

Numbering of substitutions follows the chain as printed.

One assay has as its target T1, PPO2 R128N ΔG210 (Amaranthus tuberculatus, UniProt Q0NZW9, DEL210-210/R128N).
T1 sequence (Q0NZW9 with tags, fused parts or gaps R128N/DEL210-210): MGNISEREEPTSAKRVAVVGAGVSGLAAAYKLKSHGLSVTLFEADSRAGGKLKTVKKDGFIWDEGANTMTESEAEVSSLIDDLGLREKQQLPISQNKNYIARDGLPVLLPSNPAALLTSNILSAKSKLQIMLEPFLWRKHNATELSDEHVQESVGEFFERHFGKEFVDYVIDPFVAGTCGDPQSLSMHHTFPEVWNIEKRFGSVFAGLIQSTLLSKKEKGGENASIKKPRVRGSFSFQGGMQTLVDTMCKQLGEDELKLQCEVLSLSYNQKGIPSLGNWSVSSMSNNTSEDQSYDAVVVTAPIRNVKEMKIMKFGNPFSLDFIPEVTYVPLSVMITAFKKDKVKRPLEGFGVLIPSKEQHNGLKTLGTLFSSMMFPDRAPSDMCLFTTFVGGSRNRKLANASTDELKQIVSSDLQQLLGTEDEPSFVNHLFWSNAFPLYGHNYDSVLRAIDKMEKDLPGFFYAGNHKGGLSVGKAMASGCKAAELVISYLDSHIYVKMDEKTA
Kind of assay: biochemical. Format: biochemical.

For assay [1], the target named is T2, PPO2 R128A ΔG210 in Escherichia coli hemG (Amaranthus tuberculatus, UniProt Q0NZW9, DEL210/R128A, cells depend on it).
T2 sequence (Q0NZW9 with tags, fused parts or gaps R128A/DEL210): T1 sequence (Q0NZW9 with tags, fused parts or gaps R128N/DEL210-210) with N98A
In kind it is cell-based. The settings on record: read-out: IC50 (E. coli hemG growth).

Another assay addresses T3, PPO2 R128H ΔG210 (Amaranthus tuberculatus, UniProt Q0NZW9, DEL210/R128H).
T3 sequence (Q0NZW9 with tags, fused parts or gaps R128H/DEL210): T1 sequence (Q0NZW9 with tags, fused parts or gaps R128N/DEL210-210) with N98H
Put plainly: biochemical. In kind it is biochemical.

For assay [2], the target named is T4, PPO2 R128N ΔG210 in Escherichia coli hemG (Amaranthus tuberculatus, UniProt Q0NZW9, DEL210-210/R128N, cells depend on it).
T4 sequence (Q0NZW9 with tags, fused parts or gaps R128N/DEL210-210): T1 sequence (Q0NZW9 with tags, fused parts or gaps R128N/DEL210-210)
Format: cell-based. The settings on record: read-out: IC50 (E. coli hemG growth).

Assay [3] concerns the target T5, PPO2 R128E ΔG210 in Escherichia coli hemG (Amaranthus tuberculatus, UniProt Q0NZW9, DEL210/R128E, cells depend on it).
T5 sequence (Q0NZW9 with tags, fused parts or gaps R128E/DEL210): T1 sequence (Q0NZW9 with tags, fused parts or gaps R128N/DEL210-210) with N98E
In kind it is cell-based. The settings on record: read-out: IC50 (E. coli hemG growth).

Assay [4] deals with T6, PPO2 R128H ΔG210 in Escherichia coli hemG (Amaranthus tuberculatus, UniProt Q0NZW9, DEL210/R128H, cells depend on it).
T6 sequence (Q0NZW9 with tags, fused parts or gaps R128H/DEL210): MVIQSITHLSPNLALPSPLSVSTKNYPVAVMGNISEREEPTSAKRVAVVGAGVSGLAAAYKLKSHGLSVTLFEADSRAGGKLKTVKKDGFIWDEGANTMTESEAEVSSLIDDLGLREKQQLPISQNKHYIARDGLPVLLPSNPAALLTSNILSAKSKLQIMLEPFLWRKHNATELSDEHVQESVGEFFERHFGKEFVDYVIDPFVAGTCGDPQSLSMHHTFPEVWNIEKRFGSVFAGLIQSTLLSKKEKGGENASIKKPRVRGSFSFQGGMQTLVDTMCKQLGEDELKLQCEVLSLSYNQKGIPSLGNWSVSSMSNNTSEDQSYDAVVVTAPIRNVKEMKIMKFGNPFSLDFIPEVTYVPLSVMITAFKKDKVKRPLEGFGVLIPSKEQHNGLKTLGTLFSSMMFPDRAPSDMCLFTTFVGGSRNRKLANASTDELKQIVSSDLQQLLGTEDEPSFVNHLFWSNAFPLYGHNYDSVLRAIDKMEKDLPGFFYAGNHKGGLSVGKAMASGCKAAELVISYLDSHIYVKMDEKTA
In kind it is cell-based. The settings on record: read-out: IC50 (E. coli hemG growth).

`C#CCN1C(=O)C(F)(F)Oc2cc(F)c(-n3c(=O)n(C)c(=S)n(C)c3=O)cc21` [Trifludimoxazin, trifludimoxazin]: the IC50 (commonly the concentration that inhibits the measured activity by half) was 0.175 µM at PPO2 R128N ΔG210; 0.0465 µM in assay [1]; 0.0302 µM at PPO2 R128H ΔG210; 0.00987 µM in assay [2]; 0.00987 µM in assay [3]; 0.09 µM in assay [4]. The Resistance factor came out at 714 at PPO2 R128N ΔG210 and 123 on PPO2 R128H ΔG210.
Regarding `CCOC(=O)C(C)OC(=O)c1cc(Oc2ccc(C(F)(F)F)cc2Cl)ccc1[N+](=O)[O-]` (stereo not shown) [Lactofen, lactofen], the IC50 against PPO2 R128N ΔG210 is > 10 µM; in assay [1], > 10 µM; against PPO2 R128H ΔG210, 1.59 µM; in assay [2], > 10 µM; in assay [3], 2.89 µM; in assay [4], > 10 µM.
Regarding `CS(=O)(=O)NC(=O)c1cc(Oc2ccc(C(F)(F)F)cc2Cl)ccc1[N+](=O)[O-]` [Fomesafen, fomesafen], the IC50 at PPO2 R128N ΔG210 and on PPO2 R128H ΔG210 was > 10 µM in each case.
In the case of `CC(C)N(C)S(=O)(=O)NC(=O)c1cc(-n2c(=O)cc(C(F)(F)F)n(C)c2=O)c(F)cc1Cl` [Saflufenacil, saflufenacil], the IC50 (at PPO2 R128N ΔG210; in assay [1]; at PPO2 R128H ΔG210; in assay [2]; in assay [3]; in assay [4]) was > 10 µM in each case.
